Measurements: patent publication US7332631B2, “Fc receptor modulating compounds and compositions” (Trillium Therapeutics Inc., priority 2002, dated 2008)
Where “and” joins values, the source holds several entries; their conditions need not be identical. Equal entries are not always repeated. Where two headings read alike, the source gives them in different places. Peptide text beside a SMILES is read from it. * marks the point of attachment. Cbz = O=C(OCc1ccccc1)*

How the values were obtained:
FcγRIIa = molecular target: T1, FcγRIIa (Homo sapiens, UniProt P12318); assay: FACS assay of activation of human platelets by heat aggregated IgG (HAGG), P-Selectin expression; format: cell-based; settings: for inhibition at 500 µg/mL / % Inhibition of platelet Activation: primary screen, single concentration of inhibitor 500 μg/ml, HAGG 40 μg/ml, several values = repeat determinations; for inhibition at 500 µg/mL: read-out: % Inhibition of platelet Activation
T1 construct: endogenous in cells; host or cells: washed human platelets
T1 sequence (P12318 34-317): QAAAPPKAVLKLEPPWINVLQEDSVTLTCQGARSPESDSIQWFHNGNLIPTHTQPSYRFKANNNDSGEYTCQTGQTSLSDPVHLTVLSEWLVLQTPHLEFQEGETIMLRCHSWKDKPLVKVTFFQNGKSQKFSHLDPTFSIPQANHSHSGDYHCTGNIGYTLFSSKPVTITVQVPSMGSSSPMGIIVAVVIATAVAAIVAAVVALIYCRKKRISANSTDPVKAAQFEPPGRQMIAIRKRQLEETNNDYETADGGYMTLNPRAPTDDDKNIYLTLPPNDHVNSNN
Protocol: The compounds of Table 1 were screened in a FcγRIIa dependent platelet activation assay and/or aggregation assay where platelets are activated using heat aggregated human immunoglobulin G as an immune complex. Compounds inhibiting this process were then tested for specificity. Note that the platelets were used as the target as the only Fc receptor expressed on these cells is FcγRIIa. In addition, they are very difficult to inhibit and therefore this assists in identifying compounds with reasonable potency.
The compounds of the present invention were initially screened in a rapid FACS screening assay, measuring activation of human platelets by heat aggregated IgG. […] In addition, platelets are very sensitive to a range of stimuli and activate rapidly. Activation is measured by the appearance of the protein P-Selectin on the platelet membrane after exposure to various stimuli. The stimuli were heat aggregated with IgG and as specificity controls, collagen or thrombin.
Specifically, this assay utilises washed platelets and heat aggregated IgG (HAGG) as an immune complex (agonist) to activate and crosslink FcγRIIa. Because this is a primary screen a single concentration of small molecule inhibitor is added to the platelets (final concentration of 500 μg/ml) and allowed to incubate for 30 minutes. Heat Aggregated IgG (HAGG) (40 μg/ml) is then added to the platelets and allowed to incubate for 30 minutes. Paraformaldehyde is added to the platelets for 30 minutes prior to washing. Anti-P-Selectin (FITC conjugated) and Anti-CD41 (PE conjugated) are added and the platelets are then screened by FACS to detect expression of P-Selectin, a marker of platelet activation and CD41, which is expressed by all viable platelets.
In summary, for each compound tested the activity was measured as a function of inhibition of platelet activation and/or platelet aggregation as detailed above. Specificity is defined as specific inhibition of immune complex induced platelet activation but with no effect on arachidonic acid induced activation (and where tested no effect on thrombin, collagen or ADP induced activation).
The compounds were titrated and evaluated for capacity to prevent aggregated IgG induction of p-selectin expression as a measure of activation.

HSA-FcγRIIa = HSA-FcγRIIa (Homo sapiens, UniProt P02768+P12318); assay: ELISA Inhibition Assay: inhibition of human IgG complex binding to plate-bound HSA-FcγRIIa; settings: HSA-FcγRIIa 5 μg/ml on plate, human IgG complex 0.2 μg/ml
Protocol: The compounds may also be screened using an ELISA inhibition assay to detect the blockade of IgG interaction with FcγRIIa.
Compounds were also screened using an ELISA Inhibition Assay. Human Serum Albumin genetically fused to FcγRIIa (HSA-FcγRIIa) was bound to an ELISA plate at a concentration of 5 μg/ml. The small molecule inhibitors were titrated from a starting concentration of 5 mg/ml and allowed to incubate in the presence of the receptor. A human IgG complex (0.2 μg/ml) is then added to the plate and the extent of inhibition of IgG binding by the small molecule inhibitors was measured using HRP labelled anti-human antibody.

[1] = Solubility remark in the platelet activation screen; format: physicochemical; settings: printed instead of a % inhibition value
[2] = in vitro testing, summary table, read-out: IC50 Platelet Inhibition
[3] = washed human platelets, HAGG as agonist, several values in a cell = repeat determinations, '(ICnn)' after a '<' bound = inhibition level at that concentration, read-out: Concentration at 50% inhibition of platelet activation by HAGG

HSA-FcγRIIa, sequence (P02768+P12318 fused): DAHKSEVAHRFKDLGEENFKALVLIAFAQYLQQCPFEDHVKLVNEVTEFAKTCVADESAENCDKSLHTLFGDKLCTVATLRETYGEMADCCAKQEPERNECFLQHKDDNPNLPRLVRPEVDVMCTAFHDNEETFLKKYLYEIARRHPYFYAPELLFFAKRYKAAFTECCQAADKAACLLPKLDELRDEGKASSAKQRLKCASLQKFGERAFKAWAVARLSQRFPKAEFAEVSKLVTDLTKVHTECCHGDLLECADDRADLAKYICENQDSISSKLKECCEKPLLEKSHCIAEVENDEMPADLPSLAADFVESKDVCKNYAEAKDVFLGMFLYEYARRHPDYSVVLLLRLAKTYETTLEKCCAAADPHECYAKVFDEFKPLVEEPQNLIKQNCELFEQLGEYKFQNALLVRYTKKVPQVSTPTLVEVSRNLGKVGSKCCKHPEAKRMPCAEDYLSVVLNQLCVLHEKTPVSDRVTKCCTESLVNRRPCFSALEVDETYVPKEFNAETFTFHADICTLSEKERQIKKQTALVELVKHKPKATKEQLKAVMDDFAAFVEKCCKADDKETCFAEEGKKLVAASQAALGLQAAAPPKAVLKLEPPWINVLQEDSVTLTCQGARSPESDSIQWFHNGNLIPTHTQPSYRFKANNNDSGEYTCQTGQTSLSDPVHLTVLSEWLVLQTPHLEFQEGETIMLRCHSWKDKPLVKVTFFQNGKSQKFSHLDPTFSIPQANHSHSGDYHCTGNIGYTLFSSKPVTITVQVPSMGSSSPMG

O=C(O)c1ccc2c(c1)C(=O)c1cc(C(=O)O)ccc1-2 [Compound 001]
IC50 (FcγRIIa; [2]): 610 µM | IC50 (FcγRIIa; [3]): 600 µM | IC50 (HSA-FcγRIIa): 12200 µM

O=C(O)c1sc2cc([N+](=O)[O-])ccc2c1Cl [Compound 026, 3-Chloro-6-nitro-1-benzo[b]thiophene-2-carboxylic acid]
IC50 (FcγRIIa; [2]): 780 µM | IC50 (FcγRIIa; [3]): 100 µM | IC50 (HSA-FcγRIIa): 17500 µM

O=C(O)c1cccc([S+]([O-])c2cccc(C(=O)O)c2)c1 [Compound 032, 3-[(3-Carboxyphenyl)sulfinyl]benzenecarboxylic acid]
IC50 Platelet Inhibition (FcγRIIa; in vitro testing, summary table): -'ve | IC50 (FcγRIIa; [3]): 70 µM | IC50 (HSA-FcγRIIa): 2800 µM

O=C(O)c1c(Cl)c2ccc([N+](=O)[O-])cc2[s+]1[O-] (stereo not drawn) [Compound 044, 3-Chloro-6-nitro-1-benzo[b]thiophene-S-oxo-2-carboxylic acid]
IC50 (FcγRIIa; [3]): 230 µM

O=C(O)c1cccc(/C=N/c2cccc(C(=O)O)c2)c1 [Compound 076]
inhibition at 500 µg/mL (FcγRIIa): 13%

O=C(O)c1cccc(/C=N/Nc2cc(Cl)cc(Cl)c2)c1 [Compound 080]
Solubility (word printed in the % inhibition column) [1]: Insoluble

O=C(O)c1ccc(/C=N/c2cccc(C(=O)O)c2)cc1 [Compound 081]
inhibition at 500 µg/mL (FcγRIIa): 83%

COc1cccc2c(OC(C)C)c(C(=O)Nc3nnn[nH]3)sc12 [Compound 090, 3-isopropoxy-7-methoxy-N-(1H-1,2,3,4-tetrazol-5-yl)-1-benzo[b]thiophene-2-carboxamide]
IC50 (FcγRIIa; [3]): 195 µM and 295 µM

COc1ccc2sc(C(=O)Nc3nnn[nH]3)c(OC(C)C)c2c1[N+](=O)[O-] [Compound 092, 3-isopropoxy-4-nitro-5-methoxy-N-(1H-1,2,3,4-tetrazol-5-yl)-1-benzo[b]thiophene-2-carboxamide]
melting point: 236 to 238 °C | IC50 (FcγRIIa; [3]): 435 µM

O=C(O)c1cccc(CNc2cccc(C(=O)O)c2)c1 [Compound 100]
inhibition at 500 µg/mL (FcγRIIa): 7%

O=C(O)c1cccc(/C=N/c2cc(C(=O)O)cc(C(=O)O)c2)c1 [Compound 114]
inhibition at 500 µg/mL (FcγRIIa): 8%

O=C(Nc1cccc(C(=O)O)c1)Nc1cccc(C(=O)O)c1 [Compound 192]
% Inhibition of platelet Activation (FcγRIIa): 19% | inhibition at 500 µg/mL (FcγRIIa): 22%

O=C(O)CCCCCNC(=O)OCc1ccccc1 [Compound 197]
IC50 (FcγRIIa; [2]): 1300 µM | IC50 (HSA-FcγRIIa): 9400 µM

O=C(O)c1cccc(/C=N/Nc2cccc(C(=O)O)c2)c1 [Compound 200]
% Inhibition of platelet Activation (FcγRIIa): 98% and 54% and 95%

N#Cc1cccc(C(=O)CSc2cccc(C(=O)O)c2)c1 [Compound 216, 3-[2-(3-Cyanophenyl)-2-oxoethylsulfanyl]benzoic acid]
IC50 (FcγRIIa; [2]): 250 µM | IC50 (FcγRIIa; [3]): 240 µM | IC50 (HSA-FcγRIIa): 3000 µM

O=C(O)c1cccc(SCC(=O)c2cccc(C(=O)O)c2)c1 [Compound 217, 3-[2-Oxo-2-(3-carboxyphenyl)ethylsulfanyl]benzoic acid]
IC50 (FcγRIIa; [2]): 320 µM | IC50 (FcγRIIa; [3]): 360 µM and > 630 µM | IC50 (HSA-FcγRIIa): 6100 µM

O=C(O)CCNC(=O)OCc1ccccc1 [Compound 233]
% Inhibition of platelet Activation (FcγRIIa): 74%

CC(NC(=O)CNC(=O)CNC(=O)OCc1ccccc1)C(=O)O (stereo not drawn) [Compound 235]
% Inhibition of platelet Activation (FcγRIIa): 30% and 49% and 54%

O=C(O)CNC(=O)CNC(=O)OCc1ccccc1 [Compound 236] (Cbz-Gly-Gly-OH)
% Inhibition of platelet Activation (FcγRIIa): 34% and 33% and 65%

O=C(O)c1ccc(C(=O)/C=C/c2ccccc2)cc1 [Compound 237, 4-[(2E)-3-phenylprop-2-enoyl]benzoic acid]
IC50 (FcγRIIa; [2]): 40 µM | IC50 (FcγRIIa; [3]): 40 µM | IC50 (HSA-FcγRIIa): 6200 µM

O=C(/C=C/c1ccccc1C(=O)O)c1ccc[nH]1 [Compound 238, 2-[3-Oxo-3-(1H-pyrrol-2-yl)propenyl]benzoic acid]
IC50 (FcγRIIa; [2]): 270 µM | IC50 (FcγRIIa; [3]): 270 µM | IC50 (HSA-FcγRIIa): 17500 µM

N#CCCCSc1cccc(C(=O)O)c1 [Compound 239, 3-(3-Cyanopropylsulfanyl)benzoic acid]
IC50 (FcγRIIa; [2]): 330 µM | IC50 (FcγRIIa; [3]): 330 µM | IC50 ELISA (HSA-FcγRIIa): -'ve

COc1ccc2sc(C(=O)O)c(OC3CCCCC3)c2c1 [Compound 276, 3-Cyclohexyloxy-5-methoxy-1-benzo[b]thiophene-2-carboxylic acid]
melting point: 176 to 177 °C | IC50 (FcγRIIa; [3]): < 165 µM and 170 µM

O=C(O)c1cccc(C(=O)CSCC(=O)c2cccc(C(=O)O)c2)c1 [Compound 292, 1-(3-Carboxyphenyl)-2-[2-(3-carboxyphenyl)-2-oxoethylsulfanyl]ethanone]
IC50 (FcγRIIa; [2]): 520 µM | IC50 (FcγRIIa; [3]): 520 µM | IC50 (HSA-FcγRIIa): 5600 µM

O=C(O)c1cccc(SCC(=O)c2ccccc2)c1 [Compound 294]
IC50 (FcγRIIa; [2]): 80 µM | IC50 (FcγRIIa; [3]): < 190 µM and 135 µM and 155 µM and 80 µM | IC50 (HSA-FcγRIIa): 6000 µM

O=C(O)/C=C/c1ccc(OCCc2ccccc2)cc1 [Compound 299, 4-Phenethyloxycinnamic acid]
IC50 (FcγRIIa; [2]): 410 µM | IC50 (FcγRIIa; [3]): 410 µM | IC50 (HSA-FcγRIIa): 7200 µM

O=C(O)c1sc2ccccc2c1OCc1ccccc1 [Compound 333, 3-Benzyloxy-1-benzo[b]thiophene-2-carboxylic acid]
IC50 (FcγRIIa; [2]): 520 µM | IC50 (FcγRIIa; [3]): 520 µM | IC50 (HSA-FcγRIIa): 1600 µM

Cc1c(C(C)(C)C)cc(/C=C(\C#N)C(=O)O)cc1C(C)(C)C [Compound 350]
IC50 (FcγRIIa; [2]): 290 µM | IC50 (FcγRIIa; [3]): 290 µM | IC50 (HSA-FcγRIIa): 1300 µM

C/C(=C1\SC(=S)N(CC(=O)O)C1=O)c1cccc(O)c1 [Compound 374, 5-(-Methyl-3-hydroxybenzylidine)rhodanine-3-acetic acid]
IC50 (FcγRIIa; [2]): 220 µM | IC50 (HSA-FcγRIIa): 2000 µM

C/C(=C(/S)C(=O)NCC(=O)O)c1cccc(O)c1 [Compound 383, [3-(3-Hydroxyphenyl)-2-mercaptobut-2-enoylamino]acetic add]
IC50 (FcγRIIa; [2]): 280 µM | IC50 (FcγRIIa; [3]): 280 µM | IC50 (HSA-FcγRIIa): 1000 µM

O=C(O)c1ccc(SCC(=O)c2ccccc2)cc1 [Compound 384, 4-[(2-oxo-2-phenylethyl)thio]benzoic acid]
IC50 (FcγRIIa; [2]): 170 µM | IC50 (FcγRIIa; [3]): 170 µM | IC50 (HSA-FcγRIIa): 4800 µM

N#Cc1cccc(C(=O)CSc2ccc(C(=O)O)cc2)c1 [Compound 385, 4-{[2-(3-cyanophenyl)-2-oxoethyl]thio}benzoic acid]
IC50 (FcγRIIa; [2]): 360 µM | IC50 (FcγRIIa; [3]): 360 µM | IC50 (HSA-FcγRIIa): 6800 µM

O=C(O)c1ccc(C(=O)CSc2ccccc2C(=O)O)cc1 [Compound 410, 2-{[2-(4-carboxyphenyl)-2-oxoethyl]thio}benzoic acid]
IC50 (FcγRIIa; [2]): 50 µM | IC50 (FcγRIIa; [3]): 50 µM | IC50 (HSA-FcγRIIa): 6900 µM

N#Cc1cccc(C(=O)CSc2ccccc2C(=O)O)c1 [Compound 411, 2-{[2-(3-cyanophenyl)-2-oxoethyl]thio}benzoic acid]
IC50 (FcγRIIa; [2]): 180 µM | IC50 (FcγRIIa; [3]): 180 µM | IC50 (HSA-FcγRIIa): 7800 µM

O=C(O)c1cccc(C(=O)CSc2ccccc2C(=O)O)c1 [Compound 412, 2-{[2-(3-carboxyphenyl)-2-oxoethyl]thio}benzoic add]
IC50 (FcγRIIa; [2]): 60 µM | IC50 (FcγRIIa; [3]): 60 µM | IC50 (HSA-FcγRIIa): 7000 µM
